How the values were obtained:
[1] = test system: K562 human leukemia cell line; test: K562 Cell Proliferation Assay (MTS); format: cell-based; conditions: K562 cells, 48 hr incubation, MTS cell viability
Experimental: K562 human leukemia cell line purchased from Korean cell line bank (KCLB) and were cultured in Roswell Park Memorial Institute (RPMI) 1640 Medium supplemented with 10% fetal bovine serum (FBS) and 1% penicillin-streptomycin in a humidified incubator in an atmosphere of 5% CO2 at 37° C. Cells were seeded in 96-well plates at a density of 2×10^3 cells/well in 100 […] media. Compounds were diluted as two times concentration in 100 μl of media and added to each well. Compounds were 5-fold serially diluted for 6 points and treated from 5 μM to 1.6 nM in K562 cells. After 48 hr incubation, Compound treated cells were analyzed for anti-proliferation assay. Cell viability was investigated using the Cell Titer 96 Aqueous One Solution Reagent. Briefly, 200 μl of media were supplemented with 40 μl of MTS solution, incubated for 4hr, and then the absorbance was recorded at 490 nm with a 96-well plate reader. G150 values were calculated from a series of percent of cell viability at a range of compound concentration. GraphPad Prism 8 software or SigmaPlot 13.0 was used to generate G150 values.

recombinant human c-Kit = molecular target: T1, recombinant human c-Kit (Homo sapiens, UniProt P10721); test: c-Kit Kinase Assay (ADP-Glo); format: biochemical; conditions: In vitro kinase activity
T1 construct: purchased Signalchem
Experimental: (§1) ADP-Glo assay kit was purchased from Promega. Magnesium chloride (MgCl2), ethylene glycol-bis(8-aminoethyl ether)-N,N,N′,N′-tetraacetic acid (EGTA), manganese (II) chloride (MnCl2), bovine serum albumin (BSA), 1,4-dithiothreitol (DTT) and dimethyl sulfoxide (DMSO) were purchased from Sigma-Aldrich. HEPES buffer was purchased from Gibco. c-Kit kinase and poly (4:1 Glu, Tyr) peptide were purchased from Signalchem.
(§2) c-Kit kinase activity was measured by Promega's ADP-Glo™ Assay. In this assay, 100ng of recombinant human c-Kit is incubated with 5 μL of compounds (0.5% DMSO), 5 μL of Poly (4:1 Glu, Tyr) peptide (50 ng/μl) and 5 μL of ATP (50 μM) in buffer (50 mM HEPES, pH7.5; 10 mM MgCl2; 1 mM EGTA; 0.05% BSA; 50μM DTT; 2mM MnCl2). The assay was started by incubating the reaction mixture in a 96-well plate at 30° C. for 120-min. After the incubation, 25 μL ADP-Glo reagent was added and the reaction was incubated at room temperature for 40-min to stop the reaction and degrade residual ATP. The ADP product was then converted to ATP by adding 50 μL per well of detection reagent. Luminescence was detected after 30-min room temperature incubation with the Molecular device I3X plate reader. The IC50 values were calculated from a series of percent inhibition values determined at a range of inhibitor concentration using software routines as implemented in the GraphPad Prism 8 software and Sigma Plot 13.0.

[2] = molecular target: T2, recombinant human c-Kit (D816V) (Homo sapiens, UniProt P10721, D816V); test: c-Kit (D816V) Kinase Assay (ADP-Glo); format: biochemical; conditions: In vitro kinase activity
T2 construct: purchased Signalchem
Experimental: as §1, with “glycol-bis(β-aminoethyl” for “glycol-bis(8-aminoethyl”, “(EGTA),” for “(EGTA), manganese (II) chloride (MnCl2),”, “c-Kit (D816V)” for “c-Kit”
as §2, with “c-Kit (D816V)” for “c-Kit”, “Promega's ADP-GIoTM” for “Promega's ADP-Glo™”, “assay, 2.5ng” for “assay, 100ng”, “ATP (15” for “ATP (50”, “BSA; 50 μM DTT).” for “BSA; 50μM DTT; 2mM MnCl2).”

recombinant human PDGFRα = molecular target: T3, recombinant human PDGFRα (Homo sapiens, UniProt P16234); test: PDGFRα Kinase Assay (ADP-Glo); format: biochemical; conditions: In vitro kinase activity, read-out: PDGFRa IC50
T3 construct: purchased Signalchem
Experimental: as §1, with “glycol-bis(p-aminoethyl” for “glycol-bis(8-aminoethyl”, “(EGTA),” for “(EGTA), manganese (II) chloride (MnCl2),”, “PDGFRα Kinase” for “c-Kit kinase”
(§3) PDGFRα kinase activity was measured by Promega's ADP-Glo™ Assay. In this assay, 40ng of recombinant human PDGFRα is incubated with 5 μL of compounds (0.5% DMSO), 5 μL of Poly (4:1 Glu, Tyr) peptide (100 ng/μl) and 5 μL of ATP (25 pM) in buffer (50 mM HEPES, pH7.5; 10 mM MgCl2; 1 mM EGTA; 0.05% BSA; 50 μM DTT). The assay was started by incubating the reaction mixture in a 96-well plate at 30° C. for 60-min. After the incubation, 25 μL ADP-Glo reagent was added and the reaction was incubated at room temperature for 40-min to stop the reaction and degrade residual ATP. The ADP product was then converted to ATP by adding 50 μL per well of detection reagent. Luminescence was detected after 30-min room temperature incubation with the Molecular device I3X plate reader. The IC50 values were calculated from a series of percent inhibition values determined at a range of inhibitor concentration using software routines as implemented in the GraphPad Prism 8 software and Sigma Plot 13.0.

[3] = molecular target: T4, recombinant human PDGFRα (D842V) (Homo sapiens, UniProt P16234, D842V); test: PDGFRα (D842V) Kinase Assay (ADP-Glo); format: biochemical; conditions: In vitro kinase activity
T4 construct: purchased Signalchem
Experimental: ADP-Glo assay kit was purchased from Promega. Magnesium chloride (MgCl2), ethylene glycol-bis(p-aminoethyl ether)-N, N, N′, N′-tetraacetic acid (EGTA), bovine serum albumin (BSA), 1,4-dithiothreitol (DTT) and dimethyl sulfoxide (DMSO) were purchased from Sigma-Aldrich. HEPES buffer was purchased from Gibco. PDGFRα (D842V) Kinase and poly (4:1 Glu, Tyr) peptide were purchased from Signalchem.
as §3, with “PDGFRα (D842V)” for “PDGFRα”, “10 ng” for “40ng”, “([…]” for “(25”, “[…]” for “50 μM”, “120-min.” for “60-min.”

T3 sequence (P16234 24-1089): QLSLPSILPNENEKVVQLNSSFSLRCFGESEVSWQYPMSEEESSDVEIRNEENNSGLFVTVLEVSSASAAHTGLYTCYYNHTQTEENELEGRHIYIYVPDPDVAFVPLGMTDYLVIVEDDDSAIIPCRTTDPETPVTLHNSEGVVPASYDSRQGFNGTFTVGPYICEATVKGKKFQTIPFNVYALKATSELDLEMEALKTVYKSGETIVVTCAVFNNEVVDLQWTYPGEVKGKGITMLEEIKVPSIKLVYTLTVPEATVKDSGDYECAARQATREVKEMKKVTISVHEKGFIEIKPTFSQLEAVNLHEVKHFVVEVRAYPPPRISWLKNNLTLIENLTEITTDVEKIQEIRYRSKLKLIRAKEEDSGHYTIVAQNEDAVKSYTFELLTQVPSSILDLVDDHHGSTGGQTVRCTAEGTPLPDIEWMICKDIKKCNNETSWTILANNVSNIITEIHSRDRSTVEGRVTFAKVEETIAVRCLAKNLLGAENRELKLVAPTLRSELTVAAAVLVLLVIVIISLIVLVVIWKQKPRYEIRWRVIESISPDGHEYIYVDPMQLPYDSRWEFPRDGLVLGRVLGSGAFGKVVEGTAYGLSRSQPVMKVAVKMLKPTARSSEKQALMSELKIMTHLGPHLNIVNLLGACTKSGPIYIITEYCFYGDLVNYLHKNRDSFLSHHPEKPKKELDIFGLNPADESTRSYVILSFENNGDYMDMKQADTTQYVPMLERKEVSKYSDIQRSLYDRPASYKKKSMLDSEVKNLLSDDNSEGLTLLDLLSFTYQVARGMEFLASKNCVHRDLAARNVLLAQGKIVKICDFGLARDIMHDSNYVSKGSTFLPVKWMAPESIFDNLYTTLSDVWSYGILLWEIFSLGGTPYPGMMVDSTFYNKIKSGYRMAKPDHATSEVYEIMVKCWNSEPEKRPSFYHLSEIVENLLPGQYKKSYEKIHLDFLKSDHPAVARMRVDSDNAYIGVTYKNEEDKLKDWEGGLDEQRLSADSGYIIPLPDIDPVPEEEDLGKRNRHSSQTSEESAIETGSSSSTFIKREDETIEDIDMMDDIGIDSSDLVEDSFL
T4 sequence (P16234 24-1089 D842V): as the sequence (P16234 24-1089) above, with D819V counted along it
T2 sequence (P10721 26-976 D816V): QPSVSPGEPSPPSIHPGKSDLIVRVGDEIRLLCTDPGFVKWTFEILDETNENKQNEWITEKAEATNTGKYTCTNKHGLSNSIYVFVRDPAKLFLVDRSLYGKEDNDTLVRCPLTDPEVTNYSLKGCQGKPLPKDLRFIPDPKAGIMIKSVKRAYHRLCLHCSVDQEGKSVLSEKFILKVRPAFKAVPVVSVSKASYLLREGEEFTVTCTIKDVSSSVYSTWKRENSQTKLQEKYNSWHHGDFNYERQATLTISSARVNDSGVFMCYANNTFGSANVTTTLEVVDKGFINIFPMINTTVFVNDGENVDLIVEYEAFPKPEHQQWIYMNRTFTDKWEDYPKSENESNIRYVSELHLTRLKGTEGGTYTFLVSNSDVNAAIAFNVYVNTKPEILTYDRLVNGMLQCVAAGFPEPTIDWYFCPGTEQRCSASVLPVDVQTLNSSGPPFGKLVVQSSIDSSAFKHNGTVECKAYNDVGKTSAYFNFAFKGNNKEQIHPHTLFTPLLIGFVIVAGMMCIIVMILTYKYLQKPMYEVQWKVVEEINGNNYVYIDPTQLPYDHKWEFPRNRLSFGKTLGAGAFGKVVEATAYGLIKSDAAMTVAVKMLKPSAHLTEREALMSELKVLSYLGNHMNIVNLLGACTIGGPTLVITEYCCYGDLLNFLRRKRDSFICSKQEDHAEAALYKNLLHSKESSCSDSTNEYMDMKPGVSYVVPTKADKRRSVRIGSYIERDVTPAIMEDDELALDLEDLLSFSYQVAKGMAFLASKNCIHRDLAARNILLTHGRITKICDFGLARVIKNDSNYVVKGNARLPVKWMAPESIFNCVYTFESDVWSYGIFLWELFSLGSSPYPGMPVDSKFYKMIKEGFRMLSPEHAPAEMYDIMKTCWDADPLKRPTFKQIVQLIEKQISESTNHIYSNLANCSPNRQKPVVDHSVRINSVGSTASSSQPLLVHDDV
T1 sequence (P10721 26-976): as the sequence (P10721 26-976 D816V) above, with V791D counted along it

In the case of `Cc1ccc(O)cc1-c1ccc2nc(NC(=O)[C@@H]3C[C@@H]3F)cn2c1` [Example 12, (1 S,2 S)-2-fluoro-N-(6-(5-hydroxy-2-methylphenyl)imidazo[1,2-a]pyridin-2-yl)cyclopropane-1-carboxamide], the IC50 [1] is reported as 10 to 100 nM.

`Cc1cc2ncsc2cc1-c1ccc2nc(NC(=O)[C@@H]3C[C@@H]3F)cn2c1` [Example 103, (1 S,2 S)-2-fluoro-N-(6-(5-methylbenzo[d]thiazol-6-yl)imidazo[1,2-a]pyridin-2-yl)cyclopropanecarboxamide] showed an IC50 [1] of 10 to 100 nM.

`CC(=O)c1c(F)cccc1-c1ccc2nc(NC(=O)[C@@H]3C[C@@H]3F)cn2c1` [Example 68, (1 S,2 S)-N-(6-(2-acetyl-3-fluorophenyl)imidazo[1,2-a]pyridin-2-yl)-2-fluorocyclopropanecarboxamide] was tested, and the IC50 (recombinant human c-Kit) was greater than 1000 nM, the IC50 [2] was greater than 1000 nM and the IC50 (recombinant human PDGFRα) was greater than 1000 nM. The IC50 [3] was greater than 1000 nM.

Molecule `CNCc1c(F)cccc1-c1ccc2nc(NC(=O)[C@@H]3C[C@@H]3F)cn2c1` [Example 80, (1 S,2 S)-2-fluoro-N-(6-(3-fluoro-2-((methylamino)methyl)phenyl)imidazo[1,2-a]pyridin-2-yl)cyclopropanecarboxamide] has an IC50 (recombinant human c-Kit) greater than 1000 nM, an IC50 [2] greater than 1000 nM and an IC50 (recombinant human PDGFRα) greater than 1000 nM. The IC50 [3] was greater than 1000 nM.

`Cc1c(F)cccc1-c1ccc2nc(NC(=O)[C@@H]3C[C@@H]3F)cn2c1` [Example 1, (1 S,2 S)-2-fluoro-N-(6-(3-fluoro-2-methylphenyl)imidazo[1,2-a]pyridin-2-yl)cyclopropane-1-carboxamide] showed an IC50 [1] of 101 to 1000 nM.

For `Cc1c(F)cccc1-c1ccc2nc(NC(=O)C3CC3)cn2c1` [Example 70, N-(6-(3-fluoro-2-methylphenyl)imidazo[1,2-a]pyridin-2-yl)cyclopropanecarboxamide], the IC50 [1] was 101 to 1000 nM.

`Cc1cc2nc[nH]c2cc1-c1ccc2nc(NC(=O)[C@@H]3C[C@@H]3F)cn2c1` [Example 94, (1 S,2 S)-2-fluoro-N-(6-(5-methyl-1H-benzo[d]imidazol-6-yl)imidazo[1,2-a]pyridin-2-yl)cyclopropanecarboxamide] was tested, and the IC50 [1] was 101 to 1000 nM.

For `COCCOCc1c(F)cccc1-c1ccc2nc(NC(=O)[C@@H]3C[C@@H]3F)cn2c1` [Example 82], the IC50 (recombinant human c-Kit) was greater than 1000 nM, the IC50 [2] was greater than 1000 nM and the IC50 (recombinant human PDGFRα) was 101 to 1000 nM. It also gave an IC50 [3] of 101 to 1000 nM.

`CN(C)Cc1c(F)cccc1-c1ccc2nc(NC(=O)[C@@H]3C[C@@H]3F)cn2c1` [Example 84, (1 S,2 S)-N-(6-(2-((dimethylamino)methyl)-3-fluorophenyl)imidazo[1,2-a]pyridin-2-yl)-2-fluorocyclopropanecarboxamide] showed an IC50 (recombinant human c-Kit) greater than 1000 nM and an IC50 [2] greater than 1000 nM.

In the case of `Cc1ccc2[nH]ccc2c1-c1ccc2nc(NC(=O)[C@@H]3C[C@@H]3F)cn2c1` [Example 15, (1 S,2 S)-2-fluoro-N-(6-(5-methyl-1H-indol-4-yl)imidazo[1,2-a]pyridin-2-yl)cyclopropane-1-carboxamide], the IC50 [1] is reported as 10 to 100 nM.

`CNc1ccc(C)c(-c2ccc3nc(NC(=O)[C@@H]4C[C@@H]4F)cn3c2)c1` [Example 24, (1 S,2 S)-2-fluoro-N-(6-(2-methyl-5-(methylamino)phenyl)imidazo[1,2-a]pyridin-2-yl)cyclopropane-1-carboxamide] was tested, and the IC50 [1] was 10 to 100 nM.

With `Cc1c(F)cccc1-c1ccc2nc(NC(=O)C3CC3(F)F)cn2c1` (centres unmarked) [Example 77, 2,2-difluoro-N-(6-(3-fluoro-2-methylphenyl)imidazo[1,2-a]pyridin-2-yl)cyclopropanecarboxamide] the IC50 [1] was 101 to 1000 nM.

`O=C(Nc1cn2cc(-c3cnc4[nH]ccc4c3)ccc2n1)[C@@H]1C[C@@H]1F` [Example 85, (1 S,2 S)-N-(6-(1H-pyrrolo[2,3-b]pyridin-5-yl)imidazo[1,2-a]pyridin-2-yl)-2-fluorocyclopropanecarboxamide] was tested, and the IC50 [1] was 101 to 1000 nM.

For `Cc1ccc(F)cc1-c1ccc2nc(NC(=O)[C@@H]3C[C@@H]3F)cn2c1` [Example 11, (1 S,2 S)-2-fluoro-N-(6-(5-fluoro-2-methylphenyl)imidazo[1,2-a]pyridin-2-yl)cyclopropane-1-carboxamide], the IC50 [1] was 101 to 1000 nM.

Molecule `Cc1ccc(-c2cc[nH]c2)cc1-c1ccc2nc(NC(=O)[C@@H]3C[C@@H]3F)cn2c1` [Example 40, (1 S,2 S)-2-fluoro-N-(6-(2-methyl-5-(1H-pyrrol-3-yl)phenyl)imidazo[1,2-a]pyridin-2-yl)cyclopropane-1-carboxamide] has an IC50 [1] of 10 to 100 nM.

In the case of `Cc1cc2[nH]ccc2cc1-c1ccc2nc(NC(=O)[C@@H]3C[C@@H]3F)cn2c1` [Example 92, (1 S,2 S)-2-fluoro-N-(6-(6-methyl-1H-indol-5-yl)imidazo[1,2-a]pyridin-2-yl)cyclopropanecarboxamide], the IC50 [1] is reported as 10 to 100 nM.

— patent US20220242861A1, “IMIDAZOPYRIDINYL COMPOUNDS AND USE THEREOF FOR TREATMENT OF PROLIFERATIVE DISORDERS” (1ST Biotherapeutics, Inc., priority 2019, published 2022)
